Assay results published in PubChem BioAssay (NCI).
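Five concentrations, 48 hours, 96-well plates. Here, GI50 denotes the concentration required for 50% inhibition of growth. At the TGI there is no net growth.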

Columns and labels:
Test in all cases: NCI anticancer screen, dose series, 48 h
[1] = tested on: SF-295 CNS
[2] = tested on: LOX IMVI melanoma
[3] = tested on: 786-0 renal
[4] = tested on: HT29 colon
[5] = tested on: OVCAR-4 ovarian
[6] = tested on: COLO 205 colon
[7] = tested on: CAKI-1 renal
[8] = tested on: MDA-MB-231 breast
[9] = tested on: UO-31 renal
[10] = tested on: SNB-75 CNS

## N#CCCN(CCCN(C(=O)Nc1ccccc1)c1ccccc1)C(=O)Nc1ccccc1
[1]
  TGI: > 100 µM
[2]
  TGI: > 100 µM
[3]
  TGI: > 100 µM
[4]
  TGI: > 100 µM
[5]
  TGI: > 100 µM
[6]
  TGI: > 100 µM
[7]
  TGI: 28.6 µM
[8]
  TGI: > 100 µM
[9]
  TGI: > 100 µM
[10]
  TGI: > 100 µM

## CC(C)(C)OC(=O)N1C(OP(=O)(Oc2ccccc2)Oc2ccccc2)=COc2cccnc21
[1]
  TGI: > 100 µM
[2]
  TGI: 85.3 µM
[3]
  TGI: > 100 µM
[4]
  TGI: > 100 µM
[5]
  TGI: > 100 µM
[6]
  TGI: > 100 µM
[7]
  TGI: > 100 µM
[8]
  TGI: > 100 µM
[9]
  TGI: > 100 µM
[10]
  TGI: > 100 µM

## CC(C)(C)N1Cc2ccccc2/C(=C/Sc2ccccc2)C1=O
[1]
  TGI: 33.8 µM
[2]
  TGI: 11.3 µM
[3]
  TGI: 24.8 µM
[4]
  TGI: 35.6 µM
[5]
  TGI: 19.6 µM
[6]
  TGI: 39 µM
[7]
  TGI: 30.7 µM
[8]
  TGI: 33.9 µM
[9]
  TGI: 24.8 µM
[10]
  TGI: 31.9 µM

## NC(=O)CC(Nc1ncc2c(n1)-c1ccccc1OC2)C(=O)O (configuration not stated)
[1]
  TGI: > 100 µM
[2]
  TGI: > 100 µM
[3]
  TGI: > 100 µM
[4]
  TGI: > 100 µM
[5]
  TGI: > 100 µM
[6]
  TGI: > 100 µM
[7]
  TGI: > 100 µM
[8]
  TGI: > 100 µM
[9]
  TGI: > 100 µM
[10]
  TGI: > 100 µM

## N#CCc1nc(C#N)c(N)o1
[1]
  TGI: > 100 µM
[2]
  GI50: > 100 µM
  TGI: > 100 µM
[3]
  TGI: > 100 µM
[4]
  TGI: > 100 µM
[5]
  TGI: > 100 µM
[6]
  TGI: > 100 µM
[7]
  TGI: > 100 µM
[8]
  TGI: > 100 µM
[9]
  TGI: > 100 µM
[10]
  GI50: > 100 µM
  TGI: > 100 µM

## CSCCC(NC(=O)OC(C)(C)C)C(=O)NCCNc1ccc(NCCNC(=O)C(CCSC)NC(=O)OC(C)(C)C)c2c1C(=O)c1ccccc1C2=O (configuration not stated)
[1]
  TGI: 21.1 µM
[2]
  TGI: 22.8 µM
[3]
  TGI: 12.8 µM
[4]
  TGI: 7.51 µM
[5]
  TGI: 24.8 µM
[6]
  TGI: 5.41 µM
[7]
  TGI: > 41.5 µM
[8]
  TGI: 8.54 µM
[9]
  TGI: > 100 µM
[10]
  TGI: 8.54 µM

## COc1ccc2c(c1)CCc1c-2n(CCN(C)C)c2ccc(OC)cc12
[1]
  TGI: > 100 µM
[2]
  TGI: > 100 µM
[3]
  TGI: > 100 µM
[4]
  TGI: > 100 µM
[5]
  TGI: 68.7 µM
[6]
  TGI: > 100 µM
[7]
  TGI: > 100 µM
[8]
  TGI: > 100 µM
[9]
  TGI: 47.8 µM
[10]
  TGI: 76.5 µM

## Cc1cc(S(=O)(=O)Nc2nnc3cc(C(F)(F)F)cc(C)n23)c(S)cc1Cl
[1]
  TGI: > 100 µM
[2]
  TGI: > 100 µM
[3]
  TGI: > 100 µM
[4]
  TGI: > 100 µM
[5]
  TGI: > 100 µM
[6]
  TGI: > 100 µM
[7]
  TGI: > 100 µM
[8]
  TGI: > 100 µM
[9]
  TGI: > 100 µM
[10]
  TGI: > 100 µM

## CCOC(=O)C(Cc1ccccc1)(Cc1ccc(O)cn1)NC(=O)c1ccccc1 (configuration not stated)
[1]
  TGI: > 100 µM
[2]
  TGI: 45.2 µM
[3]
  TGI: 82.6 µM
[4]
  TGI: 81 µM
[5]
  TGI: 97.7 µM
[6]
  TGI: 68.4 µM
[7]
  TGI: 87 µM
[8]
  TGI: 99.6 µM
[9]
  TGI: > 100 µM
[10]
  TGI: > 100 µM

## O=C(/C=C/c1ccc([N+](=O)[O-])cc1)c1nc2ccccc2[nH]1
[1]
  TGI: > 100 µM
[2]
  TGI: > 100 µM
[3]
  TGI: > 100 µM
[4]
  TGI: > 100 µM
[5]
  TGI: > 100 µM
[6]
  TGI: > 100 µM
[7]
  TGI: > 100 µM
[8]
  TGI: > 57.2 µM
[9]
  TGI: > 100 µM
[10]
  TGI: > 100 µM

## CC#CC(O)(C(=O)OC1CCCN(C)C1)C1=CC=CCC1 (configuration not stated)
[1]
  TGI: > 100 µM
[2]
  TGI: > 100 µM
[3]
  TGI: > 100 µM
[4]
  TGI: > 100 µM
[5]
  TGI: > 100 µM
[6]
  TGI: > 100 µM
[7]
  TGI: > 100 µM
[8]
  TGI: > 100 µM
[9]
  TGI: > 100 µM
[10]
  TGI: > 100 µM

## CC[N+](C)(CC)CCN1C(=O)c2ccccc2S1(=O)=O
[1]
  TGI: > 100 µM
[2]
  TGI: > 100 µM
[3]
  TGI: > 100 µM
[4]
  TGI: > 100 µM
[5]
  TGI: > 100 µM
[6]
  TGI: > 100 µM
[7]
  TGI: > 100 µM
[8]
  TGI: > 100 µM
[9]
  TGI: > 100 µM
[10]
  TGI: > 100 µM

## COC(=O)c1cncc2c1CC1C3(C(=O)OC)C=NC(C4C(CO)=CCC43)C21C (configuration not stated)
[1]
  TGI: > 100 µM
[2]
  TGI: > 100 µM
[3]
  TGI: > 100 µM
[4]
  TGI: > 100 µM
[5]
  TGI: > 100 µM
[6]
  TGI: > 100 µM
[7]
  TGI: > 100 µM
[8]
  TGI: > 100 µM
[9]
  TGI: > 100 µM
[10]
  TGI: > 100 µM

## CCOC(=O)C1=C(C)NC(=S)NC1c1cccc(O)c1 (configuration not stated)
[1]
  TGI: 93.6 µM
[2]
  TGI: > 100 µM
[3]
  TGI: > 100 µM
[4]
  TGI: > 100 µM
[5]
  TGI: > 100 µM
[6]
  TGI: > 82.3 µM
[7]
  TGI: > 100 µM
[8]
  TGI: > 90 µM
[9]
  TGI: > 100 µM
[10]
  TGI: > 95.4 µM
